{"source": "patent US20050075398A1", "about": "“Neuroprotectin D1 protects against cellular apoptosis, stroke damage, alzheimer's disease and retinal diseases” (priority 2003, published 2005)", "key": {"[1]": {"system": "polymorphonuclear leukocyte infiltration (myeloperoxidase activity)", "assay": "Myeloperoxidase (MPO) activity assay in hippocampus and neocortex after MCA-O and reperfusion", "type": "in vivo, mouse", "conditions": "0.4 μg over 48 h cerebroventricular perfusion; 1 h MCA-O, 48 h reperfusion", "protocol": "Middle Cerebral Artery Occlusion (MCA-O) and reperfusion. Experimental protocols were reviewed and approved by the Institutional Animal Care and Use Committee of Louisiana State University Health Sciences Center, New Orleans. Mice (20-25 g body wt) were induced with 2% isoflurane in a mixture of 70% nitrous oxide and 30% oxygen. Anesthesia was maintained with 1% isoflurane. Temperature was maintained at 36.5-37.5° C. using a Harvard homeothermic blanket. P 10 polyethylene catheters were placed in the femoral artery and vein, and the blood pressure was monitored. Arterial blood was analyzed for PO2, PCO2, and pH after 1 h of ischemia and 30 min after the onset of reperfusion. The common carotid and external carotid arteries were temporarily ligated with a retracting suture, and the external carotid artery was dissected just proximal to its bifurcation. The occluding filament was introduced from the external carotid artery and advanced to the internal carotid artery. The AVM micro clip was removed. The filament was advanced so that the blunted tip lay in the anterior cerebral artery and the side of the filament occluded the origin of the middle cerebral artery (MCA). The stump of the external carotid artery was ligated, and tension on the retracting suture to the common carotid artery was gently released, restoring blood flow to the carotid system.\nOcclusion of the middle cerebral artery (MCA-O) was maintained for 1 h; reperfusion was then established by delicate retrieval of the occluding suture from the arterial lumen, restoring blood flow to the region of the MCA. The mice were then killed, and the hippocampus and brain cortex rapidly dissected and frozen. Samples were kept at −80° C. until analysis. In some experiments, aspirin (7.5 mg/kg) was administered by gavage 15 min before MCA-O.\nPolymorphonuclear leukocyte infiltration measurement by the myeloperoxidase (MPO) assay. Inhibition of leukocyte infiltration by 10,17S-docosatriene (NPD1) or docosahexaenoic acid (DHA) was measured in mouse hippocampus and neocortex after 1 h of middle cerebral artery occlusion (MCA-O) and 48 h of reperfusion. Lipids were delivered for each experiment by perfusion (250 nl/h) through Alzet minipumps implanted into the third ventricle. Hippocampus and neocortex from the ipsilateral (MCA-O-reperfusion) and contralateral sides were rapidly dissected. Brain samples were assayed for myeloperoxidase activity as described in Huang, J., Choudhri, T. F., Winfree, C. J., McTaggart, R. A., Kiss, S., Mocco, J., Kim, L. J., Protopsaltis, T. S., Zhang, Y., Pinsky, D. J., and Connolly Jr., E. S. (2000) Stroke 31, 3047-3053. Briefly, brain tissues were homogenized in 10 mM phosphate buffer (pH 7.4), then frozen and thawed with liquid N2 followed by sonication. Samples were precipitated at 10,000×g for 10 min, then aliquots of supernatants were added to 10 mM phosphate buffer (pH 6.0) and a substrate solution containing o-dianisidine (Sigma; St. Louis, Mo.) and 0.025% hydrogen peroxide, and finally incubated at 37° C. for 45 min. Spectrophotometric detection was obtained at 460 nm."}, "[2]": {"system": "STAT-1-DNA binding", "assay": "EMSA of STAT-1 in hippocampus after MCA-O", "type": "in vivo, mouse", "conditions": "1 h MCA-O, 2 h reperfusion, NPD1 0.16 μg/ml infused 3 h", "protocol": "Electrophoretic mobility-shift assay (EMSA) of human AP1, HIF-1α, NF-κBp50/p65, and STAT-1α. Nuclear protein extracts (NPXTs) were prepared from one to three 3.5 cm-diameter wells of HN cells and quantitated. NPXTs (5 μg) derived from HN cells were incubated with[γ-^32P]-ATP (˜3000 Ci/mmol)-end-labeled AP1, HIF-1α, NF-κκBp50/p65, or STAT-1α consensus and mutant oligonucleotides in 5-μl volumes, reacted for 30 min on ice, analyzed on 5% or 10% acrylamide/90 mM Tris-borate pH 8.4, 1 mM EDTA (TBE) gels, dried onto 2-mm Whatman filter paper at 80° C. for 2 h, and phosphorimaged using a Typhoon Variable Mode Imager (Amersham Pharmacia Biotech, Piscataway, N.J. ).\nFIGS. 7A, 7B, and 7C show mouse hippocampus after 1 h MCA-O was followed by 2 h reperfusion, where either vehicle, DHA, or 10,17S-docosatriene (NPD1) (0.16 μg/ml) was infused into the third ventricle for 3 h at 0.25 μl/h. […] NF-κB was increased over two fold in the ipsilateral hippocampus after MCA-O, and the infusion of either DHA or 10,17S-docosatriene (NPD1) inhibited ischemia-reperfusion-induced NF-κB activation by 28% and 48%, respectively (FIG. 7A)."}, "[3]": {"system": "COX-2 expression", "assay": "COX-2 mRNA abundance in ipsilateral hippocampus after MCA-O", "type": "in vivo, mouse", "conditions": "1 h MCA-O, 2 h reperfusion, infused into third ventricle (NPD1 0.16 μg/ml)", "protocol": "COX-2 RNA abundance in hippocampus and HN cells. Abundance of human-specific COX-1 and COX-2 RNA message was assayed using RT-PCR as described in Bazan, N. G., and Lukiw, W. J. (2002) J. Biol. Chem. 277, 30359-30367.\nTo determine COX-1 and COX-2 expression, mRNA abundance in the ipsilateral hippocampus was measured. […] A 3-fold increase of COX-2 was seen due to MCA-O reperfusion (FIG. 7C). The infusion of the precursor DHA as well as its product 10,17S-docosatriene (NPD1) inhibited COX-2 expression by 14% and 52%, respectively."}, "[4]": {"system": "IL-1β gene expression", "assay": "HGU133 GeneChip DNA array in HN cells: IL-1β", "type": "cell-based, human", "conditions": "Aβ42 25 μM, DHA 50 nM or NPD1 50 nM, 18 h, nsc = no significant change"}, "[5]": {"system": "ARPE-19 cells", "assay": "A2E-induced apoptosis in ARPE-19 cells (Hoechst staining)", "type": "cell-based, human", "conditions": "A2E up to 200 μM", "protocol": "To test the ability of NPD1 to inhibit A2E oxidative stress, ARPE-19 cells grown in 6-well plates were transfected by Fugene 6 with NF-κB promoter sequence linked to a luciferase reporter gene and with IκB-EGFP. Promoterless β-galactosidase was co-transfected in ARPE-19 cells to determine the transfection efficiency. Four hours after transfection, cells were washed and further incubated 8 to 10 h before adding inducers. Two different set of cells were used. One set of cells was serum-starved 5 h before the addition of A2E and TNF-α/H2O2, and further incubated for 20-24 h before harvesting. The other set of cells was not serum-starved or further incubated. Luciferase activity was measured. The IκB-EGFP probe was measured by fluorescence confocal microscopy, and Hoechst-positive cells were identified."}}}
{"smiles": "CC/C=C\\C[C@H](O)\\C=C/C=C/C=C/[C@H](O)C/C=C\\C/C=C\\CCC(=O)O", "note": "[NPD1, 10,17S-docosatriene]", "values": [{"measurement": "inhibition of ipsilateral myeloperoxidase activity, cortex", "setting": "[1]", "result": 99, "unit": "%"}, {"measurement": "inhibition of ipsilateral myeloperoxidase activity, hippocampus", "setting": "[1]", "result": 80, "unit": "%"}, {"measurement": "effect on STAT-1-DNA binding", "setting": "[2]", "result": "small effect"}, {"measurement": "inhibition of COX-2 expression (mRNA)", "setting": "[3]", "result": 52, "unit": "%"}, {"measurement": "IL-1β gene expression, fold change over untreated controls", "setting": "[4]", "result": "nsc"}, {"measurement": "effect on A2E-induced apoptosis", "setting": "[5]", "result": "inhibited"}]}
